This note sets out measurements from patent US7074459B2, “Method for preserving wood” (priority 2003, dated 2006).

Holding throughout (assay type): cell-based
For assay [1], the system named is Escherichia coli (gram negative). Kind of assay: Bacteriostatic activity in Oxoid No. 2 nutrient broth. To be noted: 0.1 wt. %, 48 hours incubation. The method, then:
(§1) The bacteriostatic activity of several complexes was investigated by testing at 0.1 wt. % using Oxoid No. 2 nutrient broth and inoculating the broth with 1 ml of a 24 hour broth culture of the test organisms. After incubation at the optimum growth temperature of the organism for 48 hours.
(§2) The organisms tested were:
Escherichia coli (gram negative)

Assay [2] has as its system Pseudomonas aeruginosa (gram negative). The description is as above. As to conditions: 0.1 wt. %, 48 hours incubation. The procedure: as §1, §2
Pseudomonas aeruginosa (gram negative)

Assay [3] deals with Staphylococcus aureous (gram positive). The description is as above. To be noted: 0.1 wt. %, 48 hours incubation. The method, then:
as §1, §2
Staphylococcus aureous (gram positive)

In assay [4] the test system is brown-rot fungus Gloeophyllum trabeum. Kind of assay: ASTM 1413 standard soil block test, 12 weeks. As to conditions: 1% treatment, unleached, 12-week soil block test with G. trabeum. The procedure:
The following five wood preservatives were prepared for testing according to ASTM Stanard D 1413. • 1. chlorhexidine (CH)—Omadine^a 1:2 complex • 2. Polyhexamethylene biguanide—Omadine 1:1 complex • 3. Bardac^b 2250—Omadine 1:1 complex • 4. Tetrakis(hydroxylmethyl)phosphonium 0 Omadine 1:1 complex • 5. B-55^c polyionene—Omadine 1:2 complex • a) Omadine is 2-mercapto pyridine N-oxide • b) Barclac 2250 is […] • c) […] is poly(oxyethylene(dimethyliminio)ethylene(dimethylimino)ethylene dichloride Biological Evaluation
The ASTM 1413 standard soil block test was performed (ASTM 1999) Five soil bottles of each treatment and solution concentration (plus untreated controls) were exposed to the brown-rot fungus Gloeophyllum trabeum for 12 weeks. Two soil bottles with no fungus were also run to monitor any leaching of chemicals. Specimens were removed from test after 12 weeks exposure and conditioned until constant weight in the conditioning room (27° C./30°RH). The extent of decay was determined by weight loss.

Regarding “didecyldimethyl ammonium 2-mercapto-benzothiazole [Compound 5]”, the bacteriostatic activity result in assay [1], in assay [2] and in assay [3] was “bacteriostatic” in each case.
For the compound `OC[P+](CO)(CO)CO.[O-][n+]1ccccc1[S-]` [Compound 8], the bacteriostatic activity entry in assay [1], in assay [2] and in assay [3] was “bacteriostatic” each time. The “Wt. Loss % (Fungus)” value in assay [4] is given as −0.07%.
As for `N=C(NCCCCCCNC(=N)NC(=N)Nc1ccc(Cl)cc1)NC(=N)Nc1ccc(Cl)cc1.On1ccccc1=S.On1ccccc1=S` [Compound 6, chlorhexidinium di(2-mercapto-pyridine N-oxides)], the bacteriostatic activity result in assay [1], in assay [2] and in assay [3] was “bacteriostatic” in each case. For the same compound, in assay [4], the “Wt. Loss % (Fungus)” value amounted to 1.57%.
Regarding `N=C(NCCCCCCNC(=N)NC(=N)Nc1ccc(Cl)cc1)NC(=N)Nc1ccc(Cl)cc1.Oc1cc(Cl)ccc1Oc1ccc(Cl)cc1Cl.Oc1cc(Cl)ccc1Oc1ccc(Cl)cc1Cl` [Compound 10, chlorhexidinium di (triclosante)], the bacteriostatic activity result in assay [1], in assay [2] and in assay [3] was “bacteriostatic” in each case.
